Reference: patent US20230146455A1, “TREATMENT OF INFLAMMATORY DISEASES WITH PEPTIDES AND PHARMACEUTICAL COMPOSITIONS” (Yuyu Pharma, Inc., priority 2020, published 2023)
“And” between values parts separate entries of the source, which are not always exact repeats. Identical values can stand only once. Where a SMILES comes first, the peptide text is derived from it. [ ]: non-standard residue; d: D form. Hyp = O=C(O)[C@@H]1C[C@@H](O)CN1

Test system: CCL4/MIP-1 beta
Experiment: Example 9 Luminex, LPS hPBMCs: CCL4/MIP-1 beta
Assay type: cell-based, human
Details: PBMC + LPS(5 ug/ml); for MFI (Bead name: CCL4/MIP-1 beta): dilution 10
Experimental: Treatment Human PBMCs were pretreated with YY-101, YDE-011 and YDE-043 or reference compound; Xiidra® at various concentration (ranging from 1 nM to 100 uM) for 2 h before stimulation. An equal volume of 0.5% DMSO was used as a vehicle control. Then, the cells were treated with LPS at 5 ug/ml. The supernatants from treated cells were harvested at 24 h and placed in a 96 well for Luminex cytokine & chemokine profiling using a Luminex 200 multiplex assay (Luminex; R&D system, USA).
The main study arm with triplicate wells per group in a 24-well plate: • 1. Blank • 2. PBMC: 0.5% DMSO • 3. PBMC+LPS (5 ug/ml) • 4. PBMC+YY-101 100 uM • 5. PBMC+YY-101 10 uM • 6. PBMC+YY-101 1 uM • 7. PBMC+YY-101 0.1 uM • 8. PBMC+YY-101 0.01 uM • 9. PBMC+LPS (5 ug/ml)+Xiidra®100 uM • 10. PBMC+LPS (5 ug/ml)+Xiidra® 10 uM • 11. PBMC+LPS (5 ug/ml)+Xiidra® 1 uM • 12. PBMC+LPS (5 ug/ml)+Xiidra®0.1 uM • 13. PBMC+LPS (5 ug/ml)+Xiidra®0.01 uM • 14. PBMC+LPS (5 ug/ml)+Xiidra®0.001 uM • 15. PBMC+LPS (5 ug/ml)+YY-101 100 uM • 16. PBMC+LPS (5 ug/ml)+YY-101 10 uM • 17. PBMC+LPS (5 ug/ml)+YY-101 1 uM • 18. PBMC+LPS (5 ug/ml)+YY-101 0.1 uM • 19. PBMC+LPS (5 ug/ml)+YY-101 0.01 uM • 20. PBMC+LPS (5 ug/ml)+YY-101 0.001 uM • 21. PBMC+LPS (5 ug/ml)+YDE-011 100 uM • 22. PBMC+LPS (5 ug/ml)+YDE-011 10 uM • 23. PBMC+LPS (5 ug/ml)+YDE-011 1 uM • 24. PBMC+LPS (5 ug/ml)+YDE-011 0.1 uM • 25. PBMC+LPS (5 ug/ml)+YDE-011 0.01 uM • 26. PBMC+LPS (5 ug/ml)+YDE-011 0.001 uM • 27. PBMC+LPS (5 ug/ml)+YDE-043 100 uM • 28. PBMC+LPS (5 ug/ml)+YDE-043 10 uM • 29. PBMC+LPS (5 ug/ml)+YDE-043 1 uM • 30. PBMC+LPS (5 ug/ml)+YDE-043 0.1 uM • 31. PBMC+LPS (5 ug/ml)+YDE-043 0.01 uM • 32. PBMC+LPS (5 ug/ml)+YDE-043 0.001 uM
Multiplex assay was used to measure 30 cytokines and chemokines. The 1:2, 1:10 and 1:200 diluted cell supernatant and serial dilution of the standard were dispensed into a 96 well plate at 50 ul/well. Then, the pre-mixed cocktail of antibody-coated magnetic beads was dispensed at 50 ul/well and incubated at room temperature for 2 h in a horizontal orbital microplate shaker at 800±500 rpm. The beads were washed using a magnetic device to prevent loss. The biotin-antibody was dispensed in 50 ul of each well and incubated at room temperature for 1 h in a shaker at 800±500 rpm. After washing, streptavidin-PE was added at 50 ul/well and incubated at room temperature for 30 min in a shaker under the same conditions. Finally, after washing, wash buffer (100 ul/well) was added to the plate and incubated in a shaker for 2 min. The Luminex™ 200 setting were set according to the manufacturer's protocol. The data was calculated with a standard five-parameter logistic nonlinear regression analysis of the data (xPonent software 4.2, USA). The levels of cytokine/chemokine are normalized to the live cell counts (1×10^5 cells/mL) and presented as concentrations per mL (pg/mL or ng/mL).

[1] = test article 0.001 uM, single replicates
[2] = test article 0.01 uM, single replicates
[3] = test article 0.1 uM, single replicates
[4] = test article 1 uM, single replicates
[5] = test article 10 uM, single replicates
[6] = test article 100 uM, single replicates

Row | SMILES | Concentration (CCL4/MIP-1 beta) (test article 0.001 uM, Mean) [pg/mL] | conc/live cell (CCL4/MIP-1 beta) (test article 0.001 uM, Mean) [pg/10^5] | MFI (Bead name: CCL4/MIP-1 beta) (test article 0.001 uM, Mean) | MFI (Bead name: CCL4/MIP-1 beta) [1] | Concentration (CCL4/MIP-1 beta) [1] | conc/live cell (CCL4/MIP-1 beta) [1] | Concentration (CCL4/MIP-1 beta) (test article 0.01 uM, Mean) [pg/mL] | conc/live cell (CCL4/MIP-1 beta) (test article 0.01 uM, Mean) [pg/10^5] | MFI (Bead name: CCL4/MIP-1 beta) (test article 0.01 uM, Mean) | MFI (Bead name: CCL4/MIP-1 beta) [2] | Concentration (CCL4/MIP-1 beta) [2] | conc/live cell (CCL4/MIP-1 beta) [2] | Concentration (CCL4/MIP-1 beta) (test article 0.1 uM, Mean) [pg/mL] | conc/live cell (CCL4/MIP-1 beta) (test article 0.1 uM, Mean) [pg/10^5] | MFI (Bead name: CCL4/MIP-1 beta) (test article 0.1 uM, Mean) | MFI (Bead name: CCL4/MIP-1 beta) [3] | Concentration (CCL4/MIP-1 beta) [3] | conc/live cell (CCL4/MIP-1 beta) [3] | Concentration (CCL4/MIP-1 beta) (test article 1 uM, Mean) [pg/mL] | conc/live cell (CCL4/MIP-1 beta) (test article 1 uM, Mean) [pg/10^5] | other results
1 | CC(C)C[C@H](NC(=O)CNC(=O)[C@H](CC(C)C)NC(=O)[C@H](CCC(N)=O)NC(=O)CNC(=O)[C@@H]1C[C@@H](O)CN1)C(=O)N[C@@H](C)C(=O)NCC(=O)N1CCC[C@H]1C(=O)N[C@@H](CCCCN)C(=O)O [YDE-011] (H-[Hyp]GQLGLAGPK-OH) | 7251.7 | 1370.9 | 157.3 | 158.0 (2×) and 156.0 | 7267.3 pg/ml (2×) and 7220.3 pg/ml | 1615.0 pg/10^5 and 1244.9 pg/10^5 and 1253.0 pg/10^5 | 7395.1 | 1270.9 | 163.5 | 164.0 and 159.0 and 167.5 | 7407.0 pg/mL and 7290.8 pg/mL and 7487.6 pg/mL | 1194.7 pg/10^5 and 1429.6 pg/10^5 and 1188.5 pg/10^5 | 7029.3 | 1234.5 | 148.0 | 152.0 and 151.0 and 141.0 | 7125.7 pg/mL and 7101.9 pg/mL and 6860.2 pg/mL | 1079.6 pg/10^5 and 1420.4 pg/10^5 and 1203.6 pg/10^5 | 7165.0 | 1429.9 | MFI (Bead name: CCL4/MIP-1 beta) (test article 1 uM, Mean): 153.7; MFI (Bead name: CCL4/MIP-1 beta) [4]: 151.0 and 152.0 and 158.0; Concentration (CCL4/MIP-1 beta) [4]: 7101.9 pg/mL and 7125.7 pg/mL and 7267.3 pg/mL; conc/live cell (CCL4/MIP-1 beta) [4]: 1291.2 pg/10^5 and 1484.5 pg/10^5 and 1514.0 pg/10^5; Concentration (CCL4/MIP-1 beta) (test article 10 uM, Mean): 7321.1 pg/mL; conc/live cell (CCL4/MIP-1 beta) (test article 10 uM, Mean): 1392.8 pg/10^5; MFI (Bead name: CCL4/MIP-1 beta) (test article 10 uM, Mean): 160.3; MFI (Bead name: CCL4/MIP-1 beta) [5]: 166.0 and 153.5 and 161.5; Concentration (CCL4/MIP-1 beta) [5]: 7453.1 pg/mL and 7161.3 pg/mL and 7349.0 pg/mL; conc/live cell (CCL4/MIP-1 beta) [5]: 1380.2 pg/10^5 and 1234.7 pg/10^5 and 1563.6 pg/10^5; Concentration (CCL4/MIP-1 beta) (test article 100 uM, Mean): 6290.1 pg/mL; conc/live cell (CCL4/MIP-1 beta) (test article 100 uM, Mean): 1036.8 pg/10^5; MFI (Bead name: CCL4/MIP-1 beta) (test article 100 uM, Mean): 118.5; MFI (Bead name: CCL4/MIP-1 beta) [6]: 119.0 and 121.5 and 115.0; Concentration (CCL4/MIP-1 beta) [6]: 6303.5 pg/mL and 6368.7 pg/mL and 6197.9 pg/mL; conc/live cell (CCL4/MIP-1 beta) [6]: 1033.4 pg/10^5 and 1044.1 pg/10^5 and 1033.0 pg/10^5
2 | CC(C)C[C@H](NC(=O)[C@H](CCC(N)=O)NC(=O)CNC(=O)[C@@H]1C[C@@H](O)CN1)C(=O)NCC(=O)O [YDE-043] (H-[Hyp]GQLG-OH; N-terminus and C-terminus assumed) | 7716.4 | 1568.7 | 177.7 | 165.5 and 185.0 and 182.5 | 7441.6 pg/mL and 7881.5 pg/mL and 7826.1 pg/mL | 1691.3 pg/10^5 and 1313.6 pg/10^5 and 1701.3 pg/10^5 | 7755.3 | 1483.8 | 179.3 | 178.0 and 177.0 and 183.0 | 7725.6 pg/mL and 7703.2 pg/mL and 7837.2 pg/mL | 1716.8 pg/10^5 and 1167.1 pg/10^5 and 1567.4 pg/10^5 | 7358.9 | 1365.2 | 162.0 | 153.5 and 159.5 and 173.0 | 7161.3 pg/mL and 7302.4 pg/mL and 7612.9 pg/mL | 1432.3 pg/10^5 and 1304.0 pg/10^5 and 1359.5 pg/10^5 | 7359.3 | 1391.3 | MFI (Bead name: CCL4/MIP-1 beta) (test article 1 uM, Mean): 162.3; MFI (Bead name: CCL4/MIP-1 beta) [4]: 175.0 (2×) and 137.0; Concentration (CCL4/MIP-1 beta) [4]: 7658.2 pg/ml (2×) and 6761.7 pg/ml; conc/live cell (CCL4/MIP-1 beta) [4]: 1320.4 pg/10^5 and 1408.7 pg/10^5 and 1444.9 pg/10^5; Concentration (CCL4/MIP-1 beta) (test article 10 uM, Mean): 7298.5 pg/mL; conc/live cell (CCL4/MIP-1 beta) (test article 10 uM, Mean): 1352.7 pg/10^5; MFI (Bead name: CCL4/MIP-1 beta) (test article 10 uM, Mean): 159.3; MFI (Bead name: CCL4/MIP-1 beta) [5]: 159.0 and 158.0 and 161.0; Concentration (CCL4/MIP-1 beta) [5]: 7290.8 pg/mL and 7267.3 pg/mL and 7337.4 pg/mL; conc/live cell (CCL4/MIP-1 beta) [5]: 1402.1 pg/10^5 and 1345.8 pg/10^5 and 1310.3 pg/10^5; Concentration (CCL4/MIP-1 beta) (test article 100 uM, Mean): 6094.9 pg/mL; conc/live cell (CCL4/MIP-1 beta) (test article 100 uM, Mean): 968.2 pg/10^5; MFI (Bead name: CCL4/MIP-1 beta) (test article 100 uM, Mean): 111.3; MFI (Bead name: CCL4/MIP-1 beta) [6]: 118.5 and 104.0; Concentration (CCL4/MIP-1 beta) [6]: 6290.4 pg/mL and 5899.5 pg/mL; conc/live cell (CCL4/MIP-1 beta) [6]: 1014.6 pg/10^5 and 921.8 pg/10^5
